The assay deals with A2780. The assay is described as follows: Cytotoxicity against human A2780 cells. It counts as functional, cell-based.

This is an account of results in ChEMBL document CHEMBL1159362, “New cytotoxic indole alkaloids from Tabernaemontana calcarea from the Madagascar rainforest” (J Nat Prod, 2003).

Values after ≈ are worked out from the molar mass of the structure shown.

As to `COC(=O)[C@@]12C[C@@H]3C[C@H]([C@@H](C)O)[C@@H]1N(CC[C@]1(O)C2=Nc2ccc(OC)cc21)C3`, the IC50 (in general, the point on the concentration scale where inhibition reaches its midpoint) amounted to 10.8 µg/mL (≈ 27 µM).

For the compound `CC[C@H]1C[C@H]2CC3c4[nH]c5cc(OC)ccc5c4CCN(C2)[C@H]31`, 4.9 µg/mL (≈ 15.8 µM) corresponded to half-maximal inhibition (IC50).

Compound `COC(=O)[C@@]12C[C@@H]3C[C@H]([C@@H](C)O)[C@@H]1N(CCc1c2[nH]c2ccc(OC)cc12)C3=O` gave a half-inhibitory concentration (IC50) of 6.8 µg/mL (≈ 17.1 µM). This IC50 and that of the compound before are within 1.5-fold of each other.

`C[C@@H](O)[C@@H]1C[C@H]2C[C@H]3c4[nH]c5ccccc5c4CCN(C2)[C@@H]13` returned an IC50 of 8.9 µg/mL (≈ 30 µM). This IC50 and that of the compound before are within 1.5-fold of each other.

Regarding `CC[C@H]1C[C@@H]2CN3CCc4c([nH]c5cc(O)ccc45)[C@](C(=O)OC)(C2)[C@H]13`, the IC50 amounted to 4.8 µg/mL (≈ 13.5 µM).

`CC[C@H]1C[C@H]2C[C@H]3c4[nH]c5cc(OC)ccc5c4CCN(C2O)[C@@H]13` (mixture of isomers): half-maximal inhibition (IC50) was put at 7.9 µg/mL.

For the compound `COC(=O)[C@@]12C[C@@H]3C[C@H]([C@@H](C)O)[C@@H]1N(CCc1c2[nH]c2ccc(OC)cc12)C3` [19(R)-HEYNEANINE], the 50% inhibitory concentration (IC50) is 4 µg/mL (≈ 10.4 µM). Compared with the last compound, the IC50 is about 2-fold lower.

In turn, `CC[C@H]1C[C@@H]2CN3CCc4c([nH]c5ccccc45)[C@](C(=O)OC)(C2)[C@H]13` [CORONARIDINE] gave a half-inhibitory concentration (IC50) of 9.9 µg/mL (≈ 29.3 µM).

As for `C[C@H](O)[C@@H]1C[C@H]2C[C@H]3c4[nH]c5ccccc5c4CCN(C2)[C@@H]13` [HEYNEANINE], it took 10.7 µg/mL (≈ 36.1 µM) to reach half-maximal inhibition (IC50).

With `CC[C@H]1C[C@H]2C[C@H]3c4[nH]c5ccc(OC)cc5c4CCN(C2)[C@@H]13` [IBOGAINE], the half-inhibitory concentration (IC50) worked out at 10.2 µg/mL (≈ 32.9 µM).

Turning to `CC[C@H]1C[C@H]2C[C@H]3c4[nH]c5ccccc5c4CCN(C2)[C@@H]13` [IBOGAMINE], the half-inhibitory concentration (IC50) came out at 3.5 µg/mL (≈ 12.5 µM). This IC50 is about 2.9-fold lower than that of the compound before.

The compound `CC[C@H]1C[C@@H]2CN3CCc4c([nH]c5cc(OC)ccc45)[C@](C(=O)OC)(C2)[C@H]13` [ISOVOACANGINE] gave an IC50 of 9.4 µg/mL (≈ 25.5 µM).

`COC(=O)[C@@]12C[C@@H]3C[C@H]([C@H](C)O)[C@@H]1N(CCc1c2[nH]c2cc(OC)ccc12)C3` [ISOVOACRISTINE] registered an IC50 of 9.6 µg/mL (≈ 25 µM).

As for `CC[C@H]1C[C@@H]2CN3CCc4c([nH]c5ccc(OC)cc45)[C@](C(=O)OC)(C2)[C@H]13` [VOACANGINE], it took 10.4 µg/mL (≈ 28.2 µM) to reach half-maximal inhibition (IC50).

Regarding `COC(=O)[C@@]12C[C@@H]3C[C@H]([C@H](C)O)[C@@H]1N(CCc1c2[nH]c2ccc(OC)cc12)C3` [VOACRISTINE], it took 11 µg/mL (≈ 28.6 µM) to reach half-maximal inhibition (IC50).
